One may read the IC50 as the concentration at which inhibition is half-maximal.

Chain of PAPD5 enzyme (Q8NDF8 whole entry): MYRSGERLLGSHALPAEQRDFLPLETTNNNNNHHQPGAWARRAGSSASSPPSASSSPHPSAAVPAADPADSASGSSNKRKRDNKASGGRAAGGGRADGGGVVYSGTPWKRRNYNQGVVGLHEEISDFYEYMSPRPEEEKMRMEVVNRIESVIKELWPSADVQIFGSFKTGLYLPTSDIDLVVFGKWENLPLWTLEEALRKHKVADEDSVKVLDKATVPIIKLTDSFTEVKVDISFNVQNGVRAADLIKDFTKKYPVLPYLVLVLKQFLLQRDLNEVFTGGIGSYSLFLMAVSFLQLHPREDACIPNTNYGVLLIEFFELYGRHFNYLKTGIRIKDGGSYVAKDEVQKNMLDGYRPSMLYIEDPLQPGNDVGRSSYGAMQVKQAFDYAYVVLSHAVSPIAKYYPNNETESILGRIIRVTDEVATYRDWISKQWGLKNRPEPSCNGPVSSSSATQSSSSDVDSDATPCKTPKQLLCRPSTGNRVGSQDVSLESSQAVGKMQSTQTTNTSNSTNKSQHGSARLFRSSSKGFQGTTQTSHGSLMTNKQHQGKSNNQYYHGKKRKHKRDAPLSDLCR

For the experiment, the target named is PAPD5 enzyme (Homo sapiens, UniProt Q8NDF8). As to the kind of experiment: PAPD5 assay (AMP incorporation onto 3'-terminus of RNA substrate, fluorescence quench). Format: biochemical. The settings on record: PAPD5 protein 0.3 nM, ATP 50 μM, 30 minutes preincubation, room temperature; read-out: Potency PAPD5 IC50. Put shortly:
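Enzyme at 0.3 nM with 50 μM ATP, pH 7.3 HEPES buffer, preincubated with compound 30 minutes at room temperature; 5 nM 5′-fluorescein RNA substrate and 20 nM TAMRA quench probe then added. Initial rates from kinetic fluorescein decrease over ~90 minutes; IC50 by four-parameter fit.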
In the case of `CC(c1ccccc1)n1cc(C(=O)O)c(=O)c2cc(Cl)c(N3Cc4cccnc4C3)nc21` (stereo not shown) [Example 43, 6-chloro-7-(5,7-dihydro-6H-pyrrolo[3,4-b]pyridin-6-yl)-4-oxo-1-(1-phenylethyl)-1,4-dihydro-1,8-naphthyridine-3-carboxylic acid], the IC50 is at most 1000 nM. The value for `N#Cc1cc2c(=O)c(C(=O)O)cn(-c3cnccn3)c2nc1N1Cc2cccnc2C1` [Example 45, 6-cyano-7-(5,7-dihydro-6H-pyrrolo[3,4-b]pyridin-6-yl)-4-oxo-1-(pyrazin-2-yl)-1,4-dihydro-1,8-naphthyridine-3-carboxylic acid] was at most 1000 nM; that for `O=C(O)c1cn(-c2ccc(O)cc2F)c2cc(N3Cc4ccccc4C3)c(Cl)cc2c1=O` [Example 30, 6-chloro-1-(2-fluoro-4-hydroxyphenyl)-7-(isoindolin-2-yl)-4-oxo-1,4-dihydroquinoline-3-carboxylic acid] was at most 1000 nM.

Consider `O=C(O)c1cn(Cc2ccccc2F)c2nc(N3Cc4cccnc4C3)c(Cl)cc2c1=O` [Example 68, 6-chloro-7-(5,7-dihydro-6H-pyrrolo[3,4-b]pyridin-6-yl)-1-(2-fluorobenzyl)-4-oxo-1,4-dihydro-1,8-naphthyridine-3-carboxylic acid], for which the half-inhibitory concentration (IC50) was at most 1000 nM. The same measure for `Cc1cc(NC(=O)N(C)C)ncc1-n1cc(C(=O)O)c(=O)c2cc(Cl)c(N3Cc4cccnc4C3)cc21` [Example 116, 6-chloro-7-(5,7-dihydro-6H-pyrrolo[3,4-b]pyridin-6-yl)-1-(6-(3,3-dimethylureido)-4-methylpyridin-3-yl)-4-oxo-1,4-dihydroquinoline-3-carboxylic acid]: at most 1000 nM; for `O=C(O)c1cn(CC2CCC2)c2nc(N3Cc4cccnc4C3)c(Cl)cc2c1=O` [Example 6, 6-chloro-1-(cyclobutylmethyl)-4-oxo-7-{5H,6H,7H-pyrrolo[3,4-b]pyridin-6-yl}-1,4-dihydro-1,8-naphthyridine-3-carboxylic acid]: at most 1000 nM; for `COc1cnc(-n2cc(C(=O)O)c(=O)c3cc(Cl)c(N4Cc5cccnc5C4)nc32)cn1` [Example 74, 6-chloro-7-(5,7-dihydro-6H-pyrrolo[3,4-b]pyridin-6-yl)-1-(5-methoxypyrazin-2-yl)-4-oxo-1,4-dihydro-1,8-naphthyridine-3-carboxylic acid]: at most 1000 nM. The same measure for `COCCN(C)c1ccn(-c2nc3c(cc2Cl)c(=O)c(C(=O)O)cn3-c2ccc(N)nc2)n1` [Example 95, 1-(6-aminopyridin-3-yl)-6-chloro-7-(3-((2-methoxyethyl)(methyl)amino)-1H-pyrazol-1-yl)-4-oxo-1,4-dihydro-1,8-naphthyridine-3-carboxylic acid]: at most 1000 nM.

As to `Cc1cc(N2CC(N(C)C)C2)ncc1-n1cc(C(=O)O)c(=O)c2cc(Cl)c(N3Cc4cccnc4C3)cc21` [Example 25, 6-chloro-7-(5,7-dihydro-6H-pyrrolo[3,4-b]pyridin-6-yl)-1-(6-(3-(dimethylamino)azetidin-1-yl)-4-methylpyridin-3-yl)-4-oxo-1,4-dihydroquinoline-3-carboxylic acid], the IC50 is at most 1000 nM. The same measure for `Cc1cc(N)ncc1-n1cc(C(=O)O)c(=O)c2cc(Cl)c(N3CCc4ncccc4C3)nc21` [Example 186, 1-(6-amino-4-methylpyridin-3-yl)-6-chloro-7-(7,8-dihydro-1,6-naphthyridin-6(5H)-yl)-4-oxo-1,4-dihydro-1,8-naphthyridine-3-carboxylic acid]: at most 1000 nM. The same measure for `Cc1cc(N)ncc1-n1cc(C(=O)O)c(=O)c2ccc(N3Cc4ccccc4C3)c(F)c21` [Example 155, 1-(6-amino-4-methylpyridin-3-yl)-8-fluoro-7-(isoindolin-2-yl)-4-oxo-1,4-dihydroquinoline-3-carboxylic acid]: at most 1000 nM; for `Nc1ccc(-n2cc(C(=O)O)c(=O)c3cc(Cl)c(N4Cc5ccccc5C4)cc32)cn1` [Example 194, 1-(6-aminopyridin-3-yl)-6-chloro-7-(isoindolin-2-yl)-4-oxo-1,4-dihydroquinoline-3-carboxylic acid]: at most 1000 nM. The same measure for `O=C(O)c1cn(C2CCN(C(=O)c3ccccc3)CC2)c2cc(N3Cc4cccnc4C3)c(Cl)cc2c1=O` [Example 84, 1-(1-benzoylpiperidin-4-yl)-6-chloro-7-(5,7-dihydro-6H-pyrrolo[3,4-b]pyridin-6-yl)-4-oxo-1,4-dihydroquinoline-3-carboxylic acid]: at most 1000 nM. For the compound `Cc1cc2c(=O)c(C(=O)O)cn(-c3cnc(N)cc3C)c2cc1N1Cc2cccnc2C1` [Example 141], the IC50 is at most 1000 nM.

Consider `COCCN(C)c1cc2c(cc1Cl)c(=O)c(C(=O)O)cn2-c1cnc(N)cc1C` [Example 132, 1-(6-amino-4-methylpyridin-3-yl)-6-chloro-7-((2-methoxyethyl)(methyl)amino)-4-oxo-1,4-dihydroquinoline-3-carboxylic acid], for which the IC50 is at most 1000 nM. The same measure for `CN(C)C1CN(c2ccc(-n3cc(C(=O)O)c(=O)c4cc(Cl)c(N5Cc6cccnc6C5)nc43)cn2)C1` [Example 22, 6-chloro-7-(5,7-dihydro-6H-pyrrolo[3,4-b]pyridin-6-yl)-1-(6-(3-(dimethylamino)azetidin-1-yl)pyridin-3-yl)-4-oxo-1,4-dihydro-1,8-naphthyridine-3-carboxylic acid]: at most 1000 nM.

For `O=C(O)c1cn(Cc2ccccc2)c2nc(N3Cc4cccnc4C3)c(Cl)cc2c1=O` [Example 40, 1-benzyl-6-chloro-7-(5,7-dihydro-6H-pyrrolo[3,4-b]pyridin-6-yl)-4-oxo-1,4-dihydro-1,8-naphthyridine-3-carboxylic acid], the IC50 is at most 1000 nM. In the case of `Cc1cc(N)ncc1-n1cc(C(=O)O)c(=O)c2cc(Cl)c(N3Cc4ccccc4C3)nc21` [Example 157, 1-(6-amino-4-methylpyridin-3-yl)-6-chloro-7-(isoindolin-2-yl)-4-oxo-1,4-dihydro-1,8-naphthyridine-3-carboxylic acid], the IC50 is at most 1000 nM. The same measure for `O=C(O)c1cn(Cc2cccnc2)c2nc(N3Cc4cccnc4C3)c(Cl)cc2c1=O` [Example 67, 6-chloro-7-(5,7-dihydro-6H-pyrrolo[3,4-b]pyridin-6-yl)-4-oxo-1-(pyridin-3-ylmethyl)-1,4-dihydro-1,8-naphthyridine-3-carboxylic acid]: at most 1000 nM.

As for `COCCN1CCC(Cn2cc(C(=O)O)c(=O)c3cc(Cl)c(N4Cc5cccnc5C4)nc32)CC1` [Example 100, 6-chloro-7-(5,7-dihydro-6H-pyrrolo[3,4-b]pyridin-6-yl)-1-((1-(2-methoxyethyl)piperidin-4-yl)methyl)-4-oxo-1,4-dihydro-1,8-naphthyridine-3-carboxylic acid hydro chloride], the concentration for half-maximal inhibition (IC50) is at most 1000 nM. The same measure for `COc1ncccc1Cn1cc(C(=O)O)c(=O)c2cc(Cl)c(N3Cc4cccnc4C3)nc21` [Example 71, 6-chloro-7-(5,7-dihydro-6H-pyrrolo[3,4-b]pyridin-6-yl)-1-((2-methoxypyridin-3-yl)methyl)-4-oxo-1,4-dihydro-1,8-naphthyridine-3-carboxylic acid]: at most 1000 nM; for `CCC(=O)Nc1cc(C)c(-n2cc(C(=O)O)c(=O)c3cc(Cl)c(N4Cc5cccnc5C4)cc32)cn1` [Example 82, 6-chloro-7-(5,7-dihydro-6H-pyrrolo[3,4-b]pyridin-6-yl)-1-(4-methyl-6-propionamidopyridin-3-yl)-4-oxo-1,4-dihydroquinoline-3-carboxylic acid]: at most 1000 nM.

Values taken from patent US20240376100A1 (Redona Therapeutics, Inc., priority 2021, published 2024).
